Reference: PMC6214120 (International Journal of Molecular Sciences, 2018)
Where two headings read alike, the source gives them in different places. Each block holds one compound with its values, some of them ahead of it.

Legend:
[1] = Bidirectional transport assay in wild-type MDCK cells; type: in vitro ADME, canine; details: dog, FFC 50 μM
Protocol: (§1) Wild-type MDCK cells and MDCK-chAbcg2 cells were seeded into Transwell® inserts (Catalogue number 3460, Corning Coster Corp. Acton, MA, USA) in 12-well plates at a density of 1 × 10^5 cells/insert and cultured for 5 days. The cell layer integrity was tested before transport by measuring transepithelial electrical resistance (TEER) across the apical (AP) and the basolateral (BL) sides of the cell line using a Millicell-ERS epithelial voltometer (Millipore, Burlington, MA, USA). The bidirectional transport experiments were conducted with the transport buffers containing either FFC (50 μM) or the mixture of FFC and gefitinib instead of the blank medium or the medium contain gefitinib (100 μM). After the cells were incubated with transport buffers for 4 h, the samples collected from the receiving sides were submitted for HPLC analysis. The TEER values of each monolayer were checked again at the end of the transport studies to ensure the integrities of cell monolayers during the whole transport analysis. According to FDA guidance a drug with a net efflux ratio that is over 2.0 will be considered as a potential substrate of an efflux pump. The apparent permeability coefficients (Papp) across cell monolayer were calculated as follows: Papp = (dQ/dt)/(A × C0), where A is the area of filter membrane, C0 is the initial concentration of the tested drug, dQ is the amount of transported drug, and dt is time elapsed. The efflux ratio (ER) was calculated from (Papp B→A)/(Papp A→B) and the net efflux ratio (NER) was calculated from […]. Each group has 5 cell monolayers, and the experiment was repeated three times.

chicken BCRP (Abcg2) = assay: Bidirectional transport assay in MDCK-chAbcg2 cells; type: in vitro ADME; details: chicken, FFC 50 μM, 4 h
Protocol: as §1

chicken BCRP = assay: as above; type: in vitro ADME; details: MDCK-chAbcg2 vs MDCK, gefitinib as inhibitor
Protocol: as §1

[2] = Pharmacokinetic studies of FFC in broilers; type: in vivo, Arbor Acres (AA) broilers; details: for bioavailability: read-out: F (absolute bioavailability); for AUC(0-t): read-out: AUC0~12h; for half-life: read-out: T1/2β (converted)
Protocol: Ten 4-week and fifteen 8-week old AA broilers were used in this study and divided into five groups (5 birds in each group) as follows: Group I, 4-week old birds given FFC orally with a single dose of 20 mg/kg through crop tube gavage; group II, 8-week old birds given FFC orally with a single dose of 20 mg/kg through crop tube gavage; group III, 4-week old birds given FFC intravenously with a single dose of 10 mg/kg through the left brachialis vein; group IV, 8-week old birds given FFC intravenously with a single dose of 10 mg/kg through the left brachialis vein; group V, 8-week old birds orally given FFC (20 mg/kg) plus gefitinib (100 mg/kg, an inhibitor of BCRP) through crop tube gavage. Groups I, II, III, and IV were used to study the influence of age-dependent BCRP expression on FFC pharmacokinetics. The data from group II and group V were used to further analyze the effects of BCRP on FFC pharmacokinetics. […] Plasma was rapidly harvested by centrifugation at 5000 g for 5 min and stored at −80 °C until assayed. The extraction procedures and HPLC method were modified from the previous method. All plasma samples were analyzed on Thermo fisher U3000 high-performance liquid chromatography (HPLC) system. […] The acetonitrile supernatants were combined, evaporated under nitrogen at 40 °C, and dissolved in 0.2 mL of mobile phase, from which 20 μL was injected into HPLC system. The mobile phase consisted of a mixture of acetonitrile-water at a ratio of 20:80 (v/v). The detection conditions as the follows: wavelength at 224 nm, the column temperature at 35 °C and the flow rate at 1 mL/min. The calibration samples were prepared with eight different FFC concentrations using blank plasma. […] The average of inter- and intra-day precision (RSD) was <11%. […] Pharmacokinetic calculations were performed on each individual set of data using 3p97 practical pharmacokinetic software (Version 97, Chinese Pharmacologic Association, Beijing, China). Least-squares fits were determined for both biexponential (two-compartment model) and single exponential (one-compartment model) equations. The number of exponential terms required to describe the plasma concentration-time data for each boiler chickens was determined by application of Akaike’s Information Criterion (AIC Method). The area under the concentration-time curve (AUC) was calculated according to the linear trapezoidal method.

chicken = assay: In vivo experiments with BCRP inhibitor Ko143 in chicken; details: in vivo experiments with Ko143 as additional BCRP inhibitor were unsuccessful
[3] = MDCK-chAbcg2, with gefitinib (100 μM)
[4] = MDCK-chAbcg2, without gefitinib
[5] = Arbor Acres (AA) broiler, plasma, iv, 10 mg/kg, intravenous 10 mg/kg, 4-week old broilers
[6] = Arbor Acres (AA) broiler, plasma, iv, 10 mg/kg, intravenous 10 mg/kg, 8-week old broilers
[7] = Arbor Acres (AA) broiler, plasma, po, 20 mg/kg, oral 20 mg/kg, 4-week old broilers
[8] = Arbor Acres (AA) broiler, plasma, po, 20 mg/kg, oral 20 mg/kg, 8-week old broilers
[9] = Arbor Acres (AA) broiler, plasma, po, 20 mg/kg, with gefitinib 100 mg/kg (BCRP inhibitor, co-dosed orally), oral 20 mg/kg, 8-week old broilers administered gefitinib (100 mg/kg)
[10] = oral 20 mg/kg, 4-week old broilers
[11] = oral 20 mg/kg, 4 week-old broilers
[12] = oral 20 mg/kg, 8-week old broilers
[13] = oral 20 mg/kg, 8-week old broilers administered gefitinib (100 mg/kg)
[14] = oral 20 mg/kg, 8-week old broilers with oral gefitinib 100 mg/kg
[15] = oral 20 mg/kg, 8 week old broilers

- Papp A→B at 4 h, 50 μM ([1]; with gefitinib (100 μM)): 0.37 ± 0.03 ×10⁻⁶ cm/s
- Papp B→A at 4 h, 50 μM ([1]; with gefitinib (100 μM)): 0.39 ± 0.01 ×10⁻⁶ cm/s
- Papp A→B at 4 h, 50 μM ([1]; without gefitinib): 0.4 ± 0.04 ×10⁻⁶ cm/s
- Papp B→A at 4 h, 50 μM ([1]; without gefitinib): 0.4 ± 0.01 ×10⁻⁶ cm/s
- Papp A→B at 4 h, 50 μM (chicken BCRP (Abcg2); [3]): 0.37 ± 0.02 ×10⁻⁶ cm/s
- Papp B→A at 4 h, 50 μM (chicken BCRP (Abcg2); [3]): 0.43 ± 0.01 ×10⁻⁶ cm/s
- Papp A→B at 4 h, 50 μM (chicken BCRP (Abcg2); [4]): 0.28 ± 0.01 ×10⁻⁶ cm/s
- Papp B→A at 4 h, 50 μM (chicken BCRP (Abcg2); [4]): 0.68 ± 0.04 ×10⁻⁶ cm/s
- Substrate status for chicken BCRP (FDA criteria: NER over 2.0 and efflux reversed by inhibitor) (chicken BCRP): substrate of chicken BCRP
- bioavailability ([2]; Arbor Acres (AA) broiler, chicken, plasma, po, with gefitinib 100 mg/kg (BCRP inhibitor, co-dosed orally), oral 20 mg/kg, 8-week old broilers administered gefitinib (100 mg/kg)): 78.4%
- AUC(0-t) [2, 5]: 5410 ± 310 ng·h/mL
- half-life [2, 5]: 60 ± 51 min
- Vd ([2]; Arbor Acres (AA) broiler, plasma, iv, 10 mg/kg, intravenous 10 mg/kg, 4-week old broilers, read-out: Vd): 1.51 ± 0.62 L/kg
- AUC(0-t) [2, 6]: 5110 ± 1890 ng·h/mL
- half-life [2, 6]: 47.4 ± 10.8 min
- Vd ([2]; Arbor Acres (AA) broiler, plasma, iv, 10 mg/kg, intravenous 10 mg/kg, 8-week old broilers, read-out: Vd): 1.18 ± 0.29 L/kg
- bioavailability ([2]; Arbor Acres (AA) broiler, plasma, po, 20 mg/kg, oral 20 mg/kg vs i.v. 10 mg/kg, 4-week old broilers): 79.3%
- bioavailability ([2]; Arbor Acres (AA) broiler, plasma, po, 20 mg/kg, oral 20 mg/kg vs i.v. 10 mg/kg, 8-week old broilers): 48%
- Cmax [2, 7]: 3870 ± 960 ng/mL
- Tmax [2, 7]: 37.8 ± 12.6 min
- AUC(0-t) [2, 7]: 8580 ± 1880 ng·h/mL
- half-life [2, 7]: 196 ± 72 min
- Cmax [2, 8]: 2930 ± 1070 ng/mL
- Tmax [2, 8]: 37.2 ± 11.4 min
- AUC(0-t) [2, 8]: 4910 ± 1560 ng·h/mL
- half-life [2, 8]: 56.4 ± 10.2 min
- Cmax [2, 9]: 1730 ± 480 ng/mL
- Tmax [2, 9]: 120 ± 84.6 min
- AUC(0-t) [2, 9]: 8010 ± 1650 ng·h/mL
- bioavailability [2, 9]: 78.4%
- half-life [2, 9]: 210 ± 201 min
- ClB ([2]; intravenous 10 mg/kg, 4-week old broilers): 27.5 ± 9 mL/min/kg
- ClB ([2]; intravenous 10 mg/kg, 8-week old broilers): 35.7 ± 11.2 mL/min/kg
- Decrease of bioavailability in 8-week old broilers compared with 4-week old birds ([2]; oral 20 mg/kg): 31.3%
- ClB [2, 10]: 40.5 ± 8.83 mL/min/kg
- Vd [2, 10]: 3.42 ± 1.18 L/kg
- AUC0~12h [2, 11]: 8.58 (µg/mL)·h
- Cl [2, 11]: 2.43 mg/kg/h/(μg/mL)
- Vd [2, 11]: 3.42 (mg/kg)/(µg/mL)
- ClB [2, 12]: 73.8 ± 24.3 mL/min/kg
- Vd [2, 12]: 5.64 ± 0.60 L/kg
- ClB [2, 13]: 42.8 ± 8.67 mL/min/kg
- Vd [2, 13]: 7.39 ± 2.98 L/kg
- AUC0~12h [2, 14]: 8.01 (µg/mL)·h
- Cl [2, 14]: 2.57 mg/kg/h/(μg/mL)
- AUC0~12h [2, 15]: 4.91 (µg/mL)·h
- Cl [2, 15]: 4.43 mg/kg/h/(μg/mL)
- Vd [2, 15]: 5.64 (mg/kg)/(µg/mL)
Structure (SMILES): CS(=O)(=O)c1ccc([C@@H](O)[C@@H](CF)NC(=O)C(Cl)Cl)cc1 [florfenicol, Florfenicol]

Structure (SMILES): COc1ccc2c3c([nH]c2c1)[C@H](CC(C)C)N1C(=O)[C@H](CCC(=O)OC(C)(C)C)NC(=O)[C@@H]1C3 [Ko143]
- Toxicity in chicken (chicken): observed toxicity in chicken
